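Cells were grown in 96-well plates and exposed to each compound for 48 hours at five concentrations; endpoints were interpolated linearly between bracketing concentrations, or set to the highest concentration if not reached. Abbreviation: GI50, concentration required for 50% inhibition of growth.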 Calls of active or inactive are those of the source. Cut-off read from the data, not from the text of the source: active = GI50 up to about 1.1 µM and inactive = higher.
How the values were obtained:
Assay in all cases: inhibition of tumour cell growth, NCI panel, 48 h
[1] = tested on: HL-60
[2] = tested on: COLO 205
[3] = tested on: SK-MEL-2
[4] = tested on: U-251
[5] = tested on: HOP-92
[6] = tested on: SF-268
[7] = tested on: HCC 2998
[8] = tested on: NCI-H23
[9] = tested on: OVCAR-4
[10] = tested on: NCI-H460
[11] = tested on: SK-MEL-28
[12] = tested on: SN12C
[13] = tested on: HOP-62
[14] = tested on: HCT-15
[15] = tested on: K562

SMILES | GI50 [1] | GI50 [2] | GI50 [3] | GI50 [4] | GI50 [5] | GI50 [6] | GI50 [7] | GI50 [8] | GI50 [9] | GI50 [10] | GI50 [11] | GI50 [12] | GI50 [13] | GI50 [14] | GI50 [15]
CCOC(=O)/C=C1\Nc2ccccc2C(c2ccccc2)=NC1OC(C)=O (stereo not drawn) | 81.5 µM (inactive) | > 100 µM (inactive) | > 100 µM (inactive) | > 100 µM (inactive) | 32.1 µM (inactive) | > 100 µM (inactive) | > 100 µM (inactive) | > 100 µM (inactive) | > 100 µM (inactive) | > 100 µM (inactive) | > 100 µM (inactive) | > 100 µM (inactive) | > 100 µM (inactive) | > 100 µM | 97.1 µM (inactive)
COc1ccc(/C(C#N)=C2/O/C(=N/N)C(c3ccc(OC)c(OC)c3)C2=O)cc1OC (stereo not drawn) | > 100 µM (inactive) |  | > 100 µM (inactive) | > 100 µM (inactive) | > 100 µM (inactive) | > 100 µM (inactive) |  | > 100 µM (inactive) |  |  | > 100 µM (inactive) | > 100 µM (inactive) |  | > 100 µM | > 100 µM (inactive)
O=C(/C=C/c1ccc(O)cc1)c1cc(Cl)ccc1O | 17.8 µM (inactive) | > 100 µM (inactive) |  | 37.8 µM (inactive) | 85.3 µM (inactive) | 42.8 µM (inactive) | 62.8 µM (inactive) | 40.5 µM (inactive) | 38.8 µM (inactive) | 50.2 µM (inactive) | 44.2 µM (inactive) | 42.4 µM (inactive) | > 100 µM (inactive) |  | 24.1 µM (inactive)
CCOc1ccc(NC(=O)C(=O)CC(=O)c2sc(NNC(C)=O)nc2C)cc1 | > 100 µM (inactive) | > 100 µM (inactive) | > 100 µM (inactive) | > 100 µM (inactive) | > 100 µM (inactive) | > 100 µM (inactive) | > 100 µM (inactive) | > 100 µM (inactive) | > 100 µM (inactive) | > 100 µM (inactive) | > 100 µM (inactive) | > 100 µM (inactive) | > 100 µM (inactive) | > 100 µM | > 100 µM (inactive)
Cc1cn2cc(-c3ccncc3)nc2s1 | > 19.8 µM (inactive) | > 71.8 µM (inactive) | > 100 µM (inactive) | > 100 µM (inactive) | > 100 µM (inactive) | > 100 µM (inactive) | > 100 µM (inactive) | > 100 µM (inactive) | > 82 µM (inactive) | > 100 µM (inactive) | > 100 µM (inactive) | > 100 µM (inactive) | > 100 µM (inactive) | 98.6 µM | > 51.8 µM (inactive)

From ChEMBL document CHEMBL1201862, “PubChem BioAssay data set” (2004)
